In patent US11497765B1, “Thioctamer expedites wound healing” (King Abdulaziz University, priority 2022, dated 2022):

Legend:
[1] = test system: TNF-α; assay: Immunohistochemical assessment of TNF-α expression in wounded skin; type: in vivo, male Wistar rats; details: wounded skin of diabetic rats; negative control 0.47±0.048; mean±SD, n=6
Description: (§1) Rats were anesthetized by xylazine and ketamine (10 mg/kg and 100 mg/kg, respectively IP injection). The dorsal surface was shaved, the skin was sterilized by povidone-iodine solution, and an excision circle (1 cm diameter) was made on dorsal surface. After the excision, the wounds were cleaned and dried using sterile saline solution and sterile pads, respectively. Subcutaneous injection of 2% solution of lidocaine hydrochloride having 1:80,000 epinephrine (4.4 mg/kg) was performed near the wound area to reduce pain. […] All treatments were topically applied daily for a total of 10 days. The wounds were wrapped with sterile gauze dressings and changed daily. At days 0, 4, 7, and 10, wounds were photographed and assessed. Animals were sacrificed by beheading at the end of day 10 and the skin of wound area was cut out. […]

[2] = test system: wounds in diabetic rats; details: cited from earlier work
[3] = test system: wound tissues of diabetic rats; assay: Histological investigation of wound tissue (H&E, Masson's trichrome); type: in vivo, male Wistar rats; details: for Ang = Angio-genesis / CD = Collagen deposition / FP = Fibroblast proliferation / GT = Granulation tissue / IC = Inflammatory cell infiltration / RE = Re-epithelization: day 10 wound healing, topical application, diabetic rats; for healing rate by histology (in words): wound tissues collected on day 10, H&E or Masson's trichrome
Description: Thirty 210-240 g male Wistar rats were provided by KAU's animal facility and were maintained on a 12-hr dark-light cycle at a temperature of 22 ±2° C. […] Induction of diabetes in rats was carried out as formerly described, i.e. prior to the study, rats were intra-peritoneally injected with streptozotocin (50 mg/kg) for two weeks. Go Accu-Chek was utilized for assessing the level of fasting blood glucose (Roche, Mannheim, Germany) Moderate-diabetic rats with level of fasting blood glucose (200-300 mg/100 mL) were chosen for the experiment.
Rats were anesthetized by xylazine and ketamine (10 mg/kg and 100 mg/kg, respectively IP injection). The dorsal surface was shaved, the skin was sterilized by povidone-iodine solution, and an excision circle (1 cm diameter) was made on dorsal surface. After the excision, the wounds were cleaned and dried using sterile saline solution and sterile pads, respectively. Subcutaneous injection of 2% solution of lidocaine hydrochloride having 1:80,000 epinephrine (4.4 mg/kg) was performed near the wound area to reduce pain. […] All treatments were topically applied daily for a total of 10 days. The wounds were wrapped with sterile gauze dressings and changed daily. At days 0, 4, 7, and 10, wounds were photographed and assessed. Animals were sacrificed by beheading at the end of day 10 and the skin of wound area was cut out. From each animal, a part of the obtained skin was retained in 10% neutral formalin, while the other part was preserved at -80° C. for further analyses.
Wound tissues were preserved for 24 h in 10% neutral formalin, then dehydrated using serial concentrations of ethanol, passed through xylene as a clearing agent, and inserted in paraffin. Tissues' paraffin blocks were cut into 5 μm thickness that were rehydrated after dewaxing. Some sections were stained using E&H (eosin and hematoxylin), whereas the remaining were stained with MT (Masson's trichrome). Histological investigation was carried out by a pathologist without prior knowledge of the groups'treatment. On the basis of the abundance/degree of inflammatory cell infiltration, proliferation of fibroblasts, deposition of collagen, angiogenesis, tissue granulation, and re-epithelization, scores were assigned in a range from - to +++.

[4] = test system: IL-6; assay: Immunohistochemical assessment of IL-6 expression in wounded skin; type: in vivo, male Wistar rats; details: wounded skin of diabetic rats; negative control 0.42±0.044; mean±SD, n=6
Description: as §1

[5] = test system: wound on rat skin; details: seventh day after surgery; topical; negative control 43.0±17.4%; cited from earlier work
[6] = Thioctamer zeta potential and particle size evaluation (Zetasizer Nano ZSP); type: physicochemical
Description: Thioctamer was prepared by conjugation of GA and TA in a 1:1 molar ratio. TA was solvated in deionized water (with added of triethanolamine in a 1:1 molar ratio with the amount of TA). GA was dissolved separately in deionized water. The two aqueous solutions were mixed and then vortexed for 60 sec. The prepared thioctamer was assessed for zeta potential and particle size utilizing a Zetasizer Nano ZSP (Malvern Instruments Ltd., Malvern, UK).

[7] = test system: excision wound on dorsal surface of diabetic rats; assay: Wound closure in wounded diabetic rats, topical hydrogel treatment; type: in vivo, male Wistar rats; details: day 7, topical daily, 1.5% w/v HPMC hydrogel (TA 4.1, GA 12.5, thioctamer 16.6 mg/g gel), mean±SD, n=6
Description: Rats were anesthetized by xylazine and ketamine (10 mg/kg and 100 mg/kg, respectively IP injection). The dorsal surface was shaved, the skin was sterilized by povidone-iodine solution, and an excision circle (1 cm diameter) was made on dorsal surface. After the excision, the wounds were cleaned and dried using sterile saline solution and sterile pads, respectively. Subcutaneous injection of 2% solution of lidocaine hydrochloride having 1:80,000 epinephrine (4.4 mg/kg) was performed near the wound area to reduce pain. […] At days 0, 4, 7, and 10, wounds were photographed and assessed. […]

| zeta potential [6] [mV] | Compound | TNF-α expression (immunohistochemistry, image analysis) [1] | time to complete wound closure [2] [days] | Ang = Angio-genesis [3] | CD = Collagen deposition [3] | FP = Fibroblast proliferation [3] | GT = Granulation tissue [3] | IC = Inflammatory cell infiltration [3] | RE = Re-epithelization [3] | healing rate by histology (in words) [3] | IL-6 expression (immunohistochemistry, image analysis) [4] | healing rate [5] [%] | % wound contraction (healing) [7] [%] |
| --- | --- | --- | --- | --- | --- | --- | --- | --- | --- | --- | --- | --- | --- |
| -26.6±5.39 | O=C(O)CCCCC1CCSS1 (centres unmarked) [TA, thioctic acid] | 0.374±0.039 | 8 | + | ++ | ++ | ++ | +++ | ++ | moderate healing rate | 0.324±0.043 | 60.7±8.4 | 56.5±5.8 |
|  | L-alanine compound with L-tyrosine compound with L-lysine compound with L-glutamic acid acetic acid [GA] | 0.34±0.05 |  | + | ++ | ++ | ++ | +++ | ++ | moderate healing rate | 0.318±0.033 |  | 62.6±7.1 |
